Laboratory results taken from paper PMC7143549, “Anticancer Activities of Meroterpenoids Isolated from the Brown Alga Cystoseira usneoides against the Human Colon Cancer Cells HT-29” (Foods, 2020).

Tests used:
p-JNK in HT-29 cells = assay: Western blot of phosphorylated JNK; format: cell-based, human; conditions: 24 h; 10 and 20 μg/mL for 1, 2, 5, 6, 7, 8; 30 and 60 μg/mL for 3 and 4
Protocol: (§1) Cells were cultured to 80% confluence at 37 °C. After 24 h of treatment with the compounds (10 and 20 µg/mL for compounds 1, 2, 5, 6, 7, and 8, and 30 and 60 µg/mL for compounds 3 and 4), HT-29 cells were rinsed twice with ice-cold PBS, and then lysed immediately in lysis buffer (250 mM NaCl, 50 mM Tris (pH 7.5), 0.5 mM EDTA, 5 mM EGTA, 8 mM MgCl2, 1 mM PMSF, 0.01 mg/mL pepstatin A, 0.01 mg/mL leupeptin, 0.01 mg/mL aprotinin, 1% Triton X-100). After centrifugation at 12,000 g for 3 min at 4°C to separate the cellular debris, the supernatant was collected and stored at −80°C until use. The protein concentrations were determined using Bio-Rad Protein Assay (BioRad, Richmond, CA, USA), according to the manufacturer’s instructions.
(§2) Equal protein content (50 μg) samples of cell lysates were separated on 10% SDS–polyacrylamide gel and transferred to polyvinylidene difluoride membranes (Hybond-P, Amershan Biosciences, Little Chalfont, UK). The membranes were blocked with 5% (w/v) non-fat dry milk in Tris-buffered saline containing 0.1% Tween-20 buffer (pH 7.4) (TBST) for 1 h at room temperature and incubated with agitation with specific antibodies: anti-pERK1/2 (Cell Signaling; 1:1000), anti-pJNK (Cell Signaling; 1:1000), anti-pAKT (Cell Signaling; 1:1000), anti-β-actin (Sigma-Aldrich; 1:500). Membranes were incubated overnight at 4°C with gentle shaking. The secondary antibody was a peroxidase-conjugated goat anti-mouse or -rabbit antibody (1:10,000; DakoCytomation, Carpinteria, CA, USA). After washing the membrane three times in TBST buffer (10 min), the signals were detected using an enhanced chemiluminescence light-detecting kit (Super-Signal West Pico Chemiluminescent Substrate, Pierce, IL, USA), according to the manufacturer’s instructions and exposed to an X-ray film (GE Healthcare Ltd., Amersham, UK). The protein band densities were analyzed and quantified with a Scientific Imaging Systems (Biophotonics ImageJ Analysis Software, National Institute of Mental Health, Bethesda, MD, USA). β-actin was used to confirm the equal loading and transfer of proteins.

p-ERK1/2 in HT-29 cells = assay: Western blot of phosphorylated ERK1/2; format: cell-based, human; conditions: 24 h; 10 and 20 μg/mL
Protocol: as §1, §2

HT-29 cells [1] = assay: Wound migration assay; format: cell-based, human; conditions: 24 h, wound-healing; for inhibition at 10 µg/mL: Homo sapiens, HT-29, read-out: inhibition of cell migration
Protocol: For cell migration assay, HT-29 cells were seeded in six-well culture plates and allowed to grow to 80%–90% confluence for the experiment. After aspirating the medium, similar sized wounds were performed in the monolayer cells using a sterile micropipette tip. Wounded monolayer cells were washed three times with PBS to remove cell debris and then replaced with complete McCoy’s medium. HT-29 cells were treated with the AMTs (10 µg/mL for compounds 1, 2, 5, 6, 7, and 8, and 30 µg/mL for compounds 3 and 4) and incubated for 24h. For the image analysis of the effect of each treatment on cell migration, the wounded area was photographed immediately after scratching and after 24 h. The level of cell migration was determined using NIH Image software (Image J 1.44g, Wayne Rasband, USA) and then expressed as a percentage of wound closure area using the equation: Migration rate (%) = [(wound area at 0 h − wound area at 24 h)/wound area at 0 h] × 100%.

HT-29 colon cancer cells = assay: Cell cycle analysis by flow cytometry (PI); format: cell-based, human; conditions: 24 h; 30 μg/mL of 1, 2, 5, 6, 7, 8 and 90 μg/mL of 3 and 4 (Figure 4B)
Protocol: HT-29 cells (1 × 10^6 cells/well) were seeded in six-well plates and incubated for 24 h, followed by treatment with AMTs dissolved in DMSO (final concentrations of 10, 20, and 30 µg/mL for compounds 1, 2, 5, 6, 7, and 8, and 30, 60, and 90 µg/mL for compounds 3 and 4, and always below 0.05% DMSO) and 24 h of additional incubation. Colchicine (final concentration of 0.2 μg/mL) was used as positive control. The cells were then washed, harvested with trypsin, and centrifuged at 1500 rpm (5 min, 25 °C). The resulting pellet was fixed with ice-cold 70% ethanol (1 mL/10^6 cells) and the samples were stored at −4°C overnight. After fixation, the cells were washed with PBS, stained with PBS containing 5 mg/mL of RNase A, and incubated for 48 h at 4 °C. Subsequently, 50 μL of 0.1 mg/mL of IP was added and incubated for 1 h at 4 °C. The relative DNA content per cell was analyzed using a Cytomics FC500 flow cytometer (Beckman Coulter, Indianapolis, IN, USA). The data acquisition was performed with the DML program and the analysis of the acquired data with the CXP Software (Beckman Coulter, Indianapolis, IN, USA).

HT-29 cells [2] = assay: Cultrex 96 well BME cell invasion assay; format: cell-based; conditions: Homo sapiens, 24 h; for inhibition at 10 µg/mL: 10 μg/mL
Protocol: The invasion activities were measured using Trevigen’s Cultrex® 96 Well Cell Invasion Assays, as previously described. Briefly, about 50 μL of 1X basement membrane extract (BME) in coat buffer was added to each well. After incubation for 4 h at 37 °C in a 5% CO2 atmosphere, the HT-29 cells at 50,000 cells/50μL in serum free McCoy’s medium were added per well to the top chamber containing the tested compound (10 µg/mL for 1, 2, 5, 6, 7, and 8, and 30 µg/mL for compounds 3 and 4). About 150 μL of McCoy’s medium was then added to the lower chamber containing 10% FBS and penicillin/streptomycin as chemoattractants. Cells were allowed to migrate to the lower chamber in a humidified atmosphere containing 5% CO2 at 37 °C for 24 h. Afterwards, top and bottom chambers were aspirated and washed with washing buffer supplemented with the kit. About 100 μL of Cell Dissociation Solution/Calcein-AM was added to each bottom chamber well and incubated for 1 h at 37 °C in CO2 incubator. The cells internalized calcein-AM and the intracellular esterases cleaved the AM moiety to generate free calcein. Fluorescence of the samples was determined at 485 nm excitation, 520 nm emission, using ELISA plate reader (BioTek Instruments, Winooski, VT, USA). The number of cells that had invaded through the BME coat was calculated using a standard curve. Results were expressed as percentage of invasion (%) compared to the control.

SMILES	phospho-JNK level vs control (p-JNK in HT-29 cells)	p-ERK1/2 level vs control (p-ERK1/2 in HT-29 cells)	inhibition of cell migration (HT-29 cells [1]; 10 μg/mL)	accumulation of cells at the G2/M phase (cell cycle arrest, words) (HT-29 colon cancer cells)	inhibition at 10 µg/mL (HT-29 cells [1]; 10 μg/mL) [%]	inhibition at 30 µg/mL (HT-29 cells [2]; 30 μg/mL (methods, Figure 5C)) [%]	inhibition of cell migration (HT-29 cells [1]; 30 μg/mL (methods, Figure 5B))	inhibition at 10 µg/mL (HT-29 cells [2]) [%]
COc1c(C)cc(O)cc1C/C=C(\C)CC(=O)/C=C(\C)CCCC(C)(O)C(=O)/C=C/C(C)(C)O (stereo not drawn) [Compound 2, 11-hydroxy-1′-O-methylamentadione]	decreased phosphorylation	significantly reduced	no significant effects	significant	–	–	–	–
COc1c(C)cc(O)cc1/C=C/C(C)(O)CC(=O)/C=C(/C)CCCC(C)C(=O)/C=C/C(C)(C)O (stereo not drawn) [Compound 7, cystodione A]	decreased phosphorylation	significantly reduced	–	significant	30.7	–	–	–
COc1c(C)cc(O)cc1C/C=C(\C)CC(=O)/C=C(\C)CCCC(C)=O [Compound 3, cystomexicone B]	decreased phosphorylation	–	–	significant	–	> 40	no significant effects	–
COc1c(C)cc(O)cc1C/C=C(\C)CC(=O)/C=C(/C)CCCC(C)(O)C(=O)/C=C/C(C)(C)O (stereo not drawn) [Compound 1, usneoidone Z]	–	significantly reduced	–	significant cell cycle arrest in the G2/M	28.4	–	–	> 40
COc1c(C)cc(O)cc1/C=C/C(C)(O)CC(=O)/C=C(\C)CCCC(C)C(=O)/C=C/C(C)(C)O (stereo not drawn) [Compound 8, cystodione B]	decreased phosphorylation	significantly reduced	–	not significant	59.1	–	–	> 40
